From patent publication US20080233432A1, “Composition, Method for Fabricating Light-Emitting Element, Light-Emitting Element, Light-Emitting Device, and Electronic Device” (Semiconductor Energy Laboratory Co., Ltd., priority 2007, published 2008)

Assay: solubility test of organometallic complexes in various solvents
Type: physicochemical
Conditions: for solubility x in anisole: solvent having aromatic ring: anisole; for solubility x in toluene: solvent having aromatic ring: toluene; for solubility x in 2-ethoxyethanol / solubility x in ethanol / solubility x in isopropanol / solubility x in methanol / solubility x in diethyl ether: solvent not having aromatic ring; for solubility x in 2-ethoxyethanol: alcohol: 2-ethoxyethanol; for solubility x in ethanol: alcohol: ethanol; for solubility x in isopropanol: alcohol: isopropanol; for solubility x in methanol: alcohol: methanol
Procedure: In Example 1, the solubility of an organometallic complex having a pyrazine skeleton as described in Embodiment Mode 1 was evaluated. The evaluation was performed by examining the solubility in various solvents. For the solvent, toluene and anisole were each used as a solvent having an aromatic ring. Further, diethyl ether which is ether, and 2-ethoxyethanol, isopropanol, ethanol, and methanol which are alcohols were each used as a solvent not having an aromatic ring.
In addition, the solubility of btp2Ir(acac) (a structural formula (101) given below), which is disclosed in Nonpatent Document 1 was evaluated as a comparative sample A. In addition, the solubility of Ir(ppy)2(acac) (a structural formula (102) given below) was evaluated as a comparative sample B.

solubility x in anisole | solubility x in toluene | solubility x in 2-ethoxyethanol | solubility x in ethanol | solubility x in isopropanol | solubility x in methanol | solubility x in diethyl ether | Structure (SMILES)
⊚ (a double circle in the case of x≧1.2) | ⊚ (a double circle in the case of x≧1.2) | ⊚ (a double circle in the case of x≧1.2) | X (a cross in the case of x<0.6) | X (a cross in the case of x<0.6) | X (a cross in the case of x<0.6) | ⊚ (a double circle in the case of x≧1.2) | CC(=O)C=C(C)[O-].Cc1cnc(-c2[c-]cc(F)cc2)c(-c2ccc(F)cc2)n1.Cc1cnc(-c2[c-]cc(F)cc2)c(-c2ccc(F)cc2)n1.[Ir+3] [Sample 4]
⊚ (a double circle in the case of x≧1.2) | ◯ (a circle in the case of 1.2>x≧0.9) | X (a cross in the case of x<0.6) | X (a cross in the case of x<0.6) | X (a cross in the case of x<0.6) | X (a cross in the case of x<0.6) | X (a cross in the case of x<0.6) | CC(=O)C=C(C)[O-].Fc1c[c-]c(-c2nccnc2-c2ccc(F)cc2)cc1.Fc1c[c-]c(-c2nccnc2-c2ccc(F)cc2)cc1.[Ir+3] [Sample 2]
⊚ (a double circle in the case of x≧1.2) | ⊚ (a double circle in the case of x≧1.2) | ⊚ (a double circle in the case of x≧1.2) | ⊚ (a double circle in the case of x≧1.2) | ⊚ (a double circle in the case of x≧1.2) | X (a cross in the case of x<0.6) | X (a cross in the case of x<0.6) | Cc1cnc(-c2[c-]cc(F)cc2)c(-c2ccc(F)cc2)n1.Cc1cnc(-c2[c-]cc(F)cc2)c(-c2ccc(F)cc2)n1.O=C([O-])c1ccccn1.[Ir+3] [Sample 5]

Second part, the molecule before the results:

Structure (SMILES) | solubility x in anisole | solubility x in toluene | solubility x in 2-ethoxyethanol | solubility x in ethanol | solubility x in isopropanol | solubility x in methanol | solubility x in diethyl ether
CC(=O)C=C(C)[O-].Cc1nc(C(C)C)cnc1-c1[c-]cccc1.Cc1nc(C(C)C)cnc1-c1[c-]cccc1.[Ir+3] [Sample 9] | ⊚ (a double circle in the case of x≧1.2) | ⊚ (a double circle in the case of x≧1.2) | ⊚ (a double circle in the case of x≧1.2) | Δ (a triangle in the case of 0.9>x≧0.6) | Δ (a triangle in the case of 0.9>x≧0.6) | X (a cross in the case of x<0.6) | ⊚ (a double circle in the case of x≧1.2)
CC(=O)C=C(C)[O][Ir]([c]1ccccc1-c1ncc(-c2ccccc2)nc1-c1ccccc1)[c]1ccccc1-c1ncc(-c2ccccc2)nc1-c1ccccc1 [Sample 10, (acetylacetonato)bis(2,3,5-triphenylpyrazinato)iridium(III)] | ⊚ (a double circle in the case of x≧1.2) | ⊚ (a double circle in the case of x≧1.2) | ⊚ (a double circle in the case of x≧1.2) | X (a cross in the case of x<0.6) | X (a cross in the case of x<0.6) | X (a cross in the case of x<0.6) | ⊚ (a double circle in the case of x≧1.2)
CC(=O)C=C(C)[O-].[Ir+3].[c-]1ccccc1-c1nccnc1-c1ccccc1.[c-]1ccccc1-c1nccnc1-c1ccccc1 [Sample 1] | ⊚ (a double circle in the case of x≧1.2) | ◯ (a circle in the case of 1.2>x≧0.9) | X (a cross in the case of x<0.6) | X (a cross in the case of x<0.6) | X (a cross in the case of x<0.6) | X (a cross in the case of x<0.6) | X (a cross in the case of x<0.6)
CC(C)c1cnc(-c2[c-]cc(F)cc2)c(-c2ccc(F)cc2)n1.CC(C)c1cnc(-c2[c-]cc(F)cc2)c(-c2ccc(F)cc2)n1.O=C([O-])c1ccccn1.[Ir+3] [Sample 7] | ⊚ (a double circle in the case of x≧1.2) | ⊚ (a double circle in the case of x≧1.2) | ⊚ (a double circle in the case of x≧1.2) | X (a cross in the case of x<0.6) | X (a cross in the case of x<0.6) | X (a cross in the case of x<0.6) | X (a cross in the case of x<0.6)
